Data from US20250230165A1, “HETEROCYCLIC COMPOUNDS FOR USE IN THE TREATMENT OF CANCER” (ARTIOS PHARMA LIMITED, priority 2021, published 2025).

Molecular target: T1, Human Polθ polymerase domain (aa1820-2590) (Homo sapiens, UniProt O75417)
T1 construct: Human Polθ polymerase domain (aa1820-2590) was expressed in E. coli; made in house; host or cells: E. coli
T1 sequence (O75417 1820-2590): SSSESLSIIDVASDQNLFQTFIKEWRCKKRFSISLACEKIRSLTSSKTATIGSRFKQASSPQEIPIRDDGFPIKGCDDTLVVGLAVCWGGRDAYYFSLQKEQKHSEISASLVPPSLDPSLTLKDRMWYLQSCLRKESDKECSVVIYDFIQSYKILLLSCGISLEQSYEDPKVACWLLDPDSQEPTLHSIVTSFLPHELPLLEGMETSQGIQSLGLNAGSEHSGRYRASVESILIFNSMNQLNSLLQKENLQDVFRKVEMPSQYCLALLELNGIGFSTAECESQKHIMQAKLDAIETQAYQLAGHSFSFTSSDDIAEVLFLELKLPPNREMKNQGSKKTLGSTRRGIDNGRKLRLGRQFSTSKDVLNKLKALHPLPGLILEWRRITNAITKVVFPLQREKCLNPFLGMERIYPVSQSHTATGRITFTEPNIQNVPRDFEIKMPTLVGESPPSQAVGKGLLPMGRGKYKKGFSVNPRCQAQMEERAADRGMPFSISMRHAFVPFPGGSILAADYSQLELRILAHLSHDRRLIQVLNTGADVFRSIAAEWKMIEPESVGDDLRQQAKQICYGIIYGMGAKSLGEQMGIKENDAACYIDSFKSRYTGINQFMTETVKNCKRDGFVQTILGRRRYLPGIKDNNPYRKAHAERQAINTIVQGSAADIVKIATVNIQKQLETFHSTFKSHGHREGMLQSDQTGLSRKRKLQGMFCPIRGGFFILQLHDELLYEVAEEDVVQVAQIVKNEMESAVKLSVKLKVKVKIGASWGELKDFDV
Experiment: Polθ Polymerase Domain Kinact/KI Assay (PicoGreen)
Format: biochemical
Conditions: 0.8 nM Polθ, 100 nM DNA substrate, kobs vs [I] fit for 2-step covalent inhibitor
Method in brief: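 Kinact and KI derive from fitting kobs versus [I], where kobs were fitted from EDTA-stopped PicoGreen time courses (up to 60 min) in Tris pH 7.5 buffer with 1% DMSO, 0.8 nM enzyme, 100 nM DNA and […].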

| Kinact/Kl [M⁻¹ s⁻¹] | Structure (SMILES) |
| --- | --- |
| 2.06e+06 | C=CC(=O)N1C[C@H]2CN(CCN3C[C@H]4CC(=O)N(c5cc(C(F)(F)F)cc(C)n5)[C@@H]4C(=O)N(C)c4cccc(F)c43)CCN2[C@H](C)C1 (relative stereo) [Example 64a, (3aR,11aS)-5-(2-((6R/S,9aR/S)-8-acryloyl-6-methyloctahydro-2H-pyrazino[1,2-a]pyrazin-2-yl)ethyl)-6-fluoro-10-methyl-1-(6-methyl-4-(trifluoromethyl)pyridin-2-yl)-1,3a,4,5,10,11a-hexahydro-2H-benzo[b]pyrrolo[2,3-f][1,4]diazocine-2,11(3H)-dione] |
| 1.72e+06 | C=CC(=O)N1CC[C@@H](O)[C@H](N(C)CCN2C[C@H]3CC(=O)N(c4cc(C(F)(F)F)cc(C)n4)[C@@H]3C(=O)N(C)c3cccc(Cl)c32)C1 (relative stereo) [Example 113, (3aR,11aS)-5-(2-(((rel-trans)-1-acryloyl-4-hydroxypiperidin-3-yl)(methyl)amino)ethyl)-6-chloro-10-methyl-1-(6-methyl-4-(trifluoromethyl)pyridin-2-yl)-1,3a,4,5,10,11a-hexahydro-2H-benzo[b]pyrrolo[2,3-f][1,4]diazocine-2,11(3H)-dione] |
| 600000 | C=CC(=O)N1C[C@@H]2CN(CCN3C[C@H]4CC(=O)N(c5cc(C(F)(F)F)cc(C)n5)[C@@H]4C(=O)N(C)c4cccc(F)c43)CCN2C[C@@H]1C (single isomer, unassigned) [Example 9] |
| 210000 | C=CC(=O)N1CC2CN(CCN3C[C@H]4CC(=O)N(c5cc(C(F)(F)F)cc(C)n5)[C@@H]4C(=O)N(C)c4cccc(F)c43)CCN2C[C@@H]1C (single isomer, unassigned) [Example 10] |
| 140000 | C=CC(=O)N1CCC12CCN(CCN1C[C@H]3CC(=O)N(c4cc(C(F)(F)F)cc(C)n4)[C@@H]3C(=O)N(C)c3cccc(F)c31)C2 (single isomer, unassigned) [Example 21b] |
| 170000 | C=CC(=O)N1CC(N2CCO[C@H]3CN(CCN4C[C@H]5CC(=O)N(c6cc(C(F)(F)F)cc(C)n6)[C@@H]5C(=O)N(C)c5cccc(F)c54)C[C@@H]32)C1 (single isomer, unassigned) [Example 22a] |
| 460000 | C=CC(=O)N1CC(N2CCO[C@@H]3CN(CCN4C[C@H]5CC(=O)N(c6cc(C(F)(F)F)cc(C)n6)[C@@H]5C(=O)N(C)c5cccc(F)c54)C[C@H]32)C1 (single isomer, unassigned) [Example 22b] |
| 540000 | C=CC(=O)N1CCN2CCN(CCN3C[C@H]4CC(=O)N(c5cc(C(F)(F)F)cc(C)n5)[C@@H]4C(=O)N(C)c4cccc(F)c43)CC2C1 (single isomer, unassigned) [Example 23b] |
| 250000 | C=CC(=O)N1C[C@H]2CN(CCN3C[C@H]4CC(=O)N(c5cc(C(F)(F)F)cc(C)n5)[C@@H]4C(=O)N(C)c4cccc(F)c43)CC[C@H]2C1 (single isomer, unassigned) [Example 25b] |
| 1.69e+06 | C=CC(=O)N1CC2(C1)NCCN(CCN1C[C@H]3CC(=O)N(c4cc(C(F)(F)F)cc(C)n4)[C@@H]3C(=O)N(C)c3cccc(F)c31)C2C (single isomer, unassigned) [Example 34b] |
| 500000 | C=CC(=O)N1C[C@H]2CN(CCN3C[C@H]4CC(=O)N(c5cc(C(F)(F)F)cc(C)n5)[C@@H]4C(=O)N(C)c4cccc(F)c43)CCN2C(=O)[C@H]1C (single isomer, unassigned) [Example 58] |
| 1.08e+06 | C=CC(=O)N1C[C@@H]2CN(CCN3C[C@H]4CC(=O)N(c5cc(C(F)(F)F)cc(C)n5)[C@@H]4C(=O)N(C)c4cccc(F)c43)CCN2C(=O)[C@@H]1C (single isomer, unassigned) [Example 59] |
| 300000 | C=CC(=O)N1C[C@@H]2CN(CCN3C[C@H]4CC(=O)N(c5cc(C(F)(F)F)cc(C)n5)[C@@H]4C(=O)N(C)c4cccc(F)c43)CCN2C(=O)[C@H]1C (single isomer, unassigned) [Example 60] |
| 500000 | C=CC(=O)N1C[C@H]2CN(CCN3C[C@H]4CC(=O)N(c5cc(C(F)(F)F)cc(C)n5)[C@@H]4C(=O)N(C)c4cccc(F)c43)CCN2C(=O)[C@@H]1C (single isomer, unassigned) [Example 61] |
| 1.09e+06 | C=CC(=O)N1CC(N(C)CC(O)CN2C[C@H]3CC(=O)N(c4cc(C(F)(F)F)cc(C)n4)[C@@H]3C(=O)N(C)c3cccc(Cl)c32)C1 (single isomer, unassigned) [Example 69] |
| 2.35e+06 | C=CC(=O)N1CCN2C(=O)[C@H](C)N(CCN3C[C@H]4CC(=O)N(c5cc(C(F)(F)F)cc(C)n5)[C@@H]4C(=O)N(C)c4cccc(F)c43)C[C@@H]2C1 (single isomer, unassigned) [Example 108] |
| 1.89e+06 | C=CC(=O)N1CC2(CN(CCN3C[C@H]4CC(=O)N(c5cc(C(F)(F)F)cc(C)n5)[C@@H]4C(=O)N(C)c4cccc(Cl)c43)CC2C#N)C1 (single isomer, unassigned) [Example 117a] |
| 3e+06 | C=CC(=O)N1CC2(CN(CCN3C[C@H]4CC(=O)N(c5cc(C(F)(F)F)cc(C)n5)[C@@H]4C(=O)N(C)c4cccc(C)c43)CC2C#N)C1 (single isomer, unassigned) [Example 118a] |
| 4.57e+06 | C=CC(=O)N1CC2(CN(CCN3C[C@H]4CC(=O)N(c5cc(C(F)(F)F)cc(C)n5)[C@@H]4C(=O)N(C)c4cccc(C)c43)CC2(C)C#N)C1 (single isomer, unassigned) [Example 119a] |
| 22000 | C=CC(=O)N1CCN2C[C@@H](CN3C[C@H]4CC(=O)N(c5cc(C(F)(F)F)cc(C)n5)[C@@H]4C(=O)N(C)c4cccc(F)c43)N(C)C[C@H]2C1 (single isomer, unassigned) [Example 140a] |
| 230000 | C=CC(=O)N1CCN2C[C@@H](CN3C[C@H]4CC(=O)N(c5cc(C(F)(F)F)cc(C)n5)[C@@H]4C(=O)N(C)c4cccc(F)c43)N(C)CC2C1 (single isomer, unassigned) [Example 140b] |
| 200000 | C=CC(=O)N1CCCC1c1ccc(CN2C[C@H]3CC(=O)N(c4cc(C(F)(F)F)cc(C)n4)[C@@H]3C(=O)N(C)c3cccc(F)c32)cc1 (single isomer, unassigned) [Example 141a] |
| 1.75e+06 | C=CC(=O)N1CCn2cc(CN3C[C@H]4CC(=O)N(c5cc(C(F)(F)F)cc(C)n5)[C@@H]4C(=O)N(C)c4cccc(Cl)c43)nc2C1C (single isomer, unassigned) [Example 142a] |
| 1e+06 | C=CC(=O)N1Cc2nc(CN3C[C@H]4CC(=O)N(c5cc(C(F)(F)F)cc(C)n5)[C@@H]4C(=O)N(C)c4cccc(Cl)c43)cn2CC1C (single isomer, unassigned) [Example 143a] |
| 1.06e+06 | C=CC(=O)N1Cc2nc(CN3C[C@H]4CC(=O)N(c5cc(C(F)(F)F)cc(C)n5)[C@@H]4C(=O)Nc4cccc(Cl)c43)cn2CC1C (single isomer, unassigned) [Example 144a] |
| 4.36e+06 | C=CC(=O)N1Cc2nc(CN3C[C@H]4CC(=O)N(c5cc(C(F)(F)F)cc(C)n5)[C@@H]4C(=O)N(C)c4cccc(C)c43)cn2CC1C (single isomer, unassigned) [Example 206a] |
| 320000 | C=CC(=O)N1CC(N2CCCC(CN3C[C@H]4CC(=O)N(c5cc(C(F)(F)F)cc(C)n5)[C@@H]4C(=O)N(C)c4cccc(F)c43)C2)C1 (single isomer, unassigned) [Example 225a] |

| Structure (SMILES) | Kinact/Kl [M⁻¹ s⁻¹] |
| --- | --- |
| C=CC(=O)N1CC2(C1)C(C)N(CCN1C[C@H]3CC(=O)N(c4cc(C(F)(F)F)cc(C)n4)[C@@H]3C(=O)N(C)c3cccc(F)c31)C[C@H]1COCCN12 (single isomer, unassigned) [Example 7] | 410000 |
| C=CC(=O)N1CC2(C1)[C@H](C)N(CCN1C[C@H]3CC(=O)N(c4cc(C(F)(F)F)cc(C)n4)[C@@H]3C(=O)N(C)c3cccc(F)c31)C[C@H]1COCCN12 (single isomer, unassigned) [Example 8] | 2e+06 |
| C=CC(=O)N1CC2(CN(CCN3C[C@H]4CC(=O)N(c5cc(C(F)(F)F)cc(C)n5)[C@@H]4C(=O)N(C)c4cccc(F)c43)CC3COCCN32)C1 (single isomer, unassigned) [Example 24a] | 1.63e+06 |
| C=CC(=O)N1CC2(CN(CCN3C[C@H]4CC(=O)N(c5cc(C(F)(F)F)cc(C)n5)[C@@H]4C(=O)N(C)c4cccc(Cl)c43)CC3COCCN32)C1 (single isomer, unassigned) [Example 26a] | 690000 |
